# Measured values: publication PMC11052790 (Clinical Pharmacokinetics, 2024)
# Marks after values point to notes of the source that are not given here.
# Legend:
# CYP3A4 = CYP3A4 activity time course with microdosed oral midazolam
# CYP2C19 = CYP2C19 (Homo sapiens, UniProt P33261); details: after ritonavir discontinuation vs baseline
# [1] = healthy volunteers, 6 days of high-dose ritonavir 600 mg bid; cited from earlier work
# [2] = fifth day of ritonavir 100 mg bid vs before ritonavir; 8 healthy volunteers
# [3] = with ketoconazole vs alone, previous trial EudraCT 2017-004453; cited from earlier work
# [4] = Ritonavir plasma exposure during 5-day 100 mg bid therapy; format: in vivo, human
# CYP2C19, sequence (P33261 whole entry): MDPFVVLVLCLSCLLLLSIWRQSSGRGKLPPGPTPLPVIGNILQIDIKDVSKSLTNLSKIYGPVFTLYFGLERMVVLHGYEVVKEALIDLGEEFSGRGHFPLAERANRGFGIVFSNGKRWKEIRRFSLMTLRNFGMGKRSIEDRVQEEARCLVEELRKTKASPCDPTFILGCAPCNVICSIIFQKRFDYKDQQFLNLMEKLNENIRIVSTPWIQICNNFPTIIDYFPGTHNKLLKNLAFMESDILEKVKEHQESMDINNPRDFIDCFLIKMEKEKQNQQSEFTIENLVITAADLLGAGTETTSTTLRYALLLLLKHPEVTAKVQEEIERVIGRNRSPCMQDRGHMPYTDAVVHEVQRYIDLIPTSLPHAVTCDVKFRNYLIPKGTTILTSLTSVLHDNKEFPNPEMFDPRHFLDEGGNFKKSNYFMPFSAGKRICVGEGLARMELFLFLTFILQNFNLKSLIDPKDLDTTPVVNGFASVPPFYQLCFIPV
structure (smiles),measurement,setting,value
"Cc1ncc2n1-c1ccc(Cl)cc1C(c1ccccc1F)=NC2 [Midazolam, midazolam]","Midazolam AUC2–4 increase, times baseline values",CYP3A4; from day 2 to day 5 of ritonavir treatment,11.1–15.5 times baseline
"COc1ccc2[nH]c([S+]([O-])Cc3ncc(C)c(OC)c3C)nc2c1 (stereo not drawn) [Omeprazole, omeprazole]",Decrease of omeprazole AUC0–4,CYP2C19,approximately 35%
"O=C(NC[C@H]1CN(c2ccc(N3CCOCC3=O)cc2)C(=O)O1)c1ccc(Cl)s1 [Rivaroxaban, rivaroxaban]",Exposure (AUC) increase of rivaroxaban,[1],2.5 fold
same,Geometric mean ratio (GMR) AUC0–24,[2],1.87*
same,AUCinf ratio,[3],2.37 ± 0.53
CC(C)c1nc(CN(C)C(=O)N[C@H](C(=O)N[C@@H](Cc2ccccc2)C[C@H](O)[C@H](Cc2ccccc2)NC(=O)OCc2cncs2)C(C)C)cs1 [ritonavir],Estimated time to full recovery of CYP3A4 activity,CYP3A4; after a 5-day treatment course with ritonavir 100 mg bid,10 to 12 days
same,AUC(0-t),"[4]; human, plasma, oral, 100 mg",4590 to 5330 ng·h/mL
same,Cmax,"[4]; human, plasma, oral, 100 mg, Cmax of ritonavir, remaining 4 days of 100 mg bid",1780 to 2110 ng/mL
same,Ritonavir plasma concentrations,"[4]; two days after the last ritonavir dose, LLOQ 10 ng/mL",close to or below the LLOQ
